According to US12097181B2, “Swine maternal neonatal pheromone” (Texas Tech University System, priority 2019, dated 2024):
“Also recorded” adds a separate entry of the source.

System: piglets
Assay: Preference test: piglet preference for feeders sprayed with maternal semiochemicals
Assay type: in vivo, Swine (Sus scrofa)
Settings: for overall preference index (PI) / percentage of time piglets spent interacting with the feeder: feeder sprayed with 5 mL testing solution (4.5 mg skatole and/or 9.0 mg myristic acid) vs mineral oil control feeder, litters 7±2 d of age, two 5-h test days; for piglet preference or aversion for sprayed feeder compared to control: feeder sprayed with testing solution vs mineral oil control
Experimental: Piglets used in this study were from a terminal cross between PIC Camborough genetic line sows and a terminal sire. Litters were housed in conventional slatted floor farrowing crates (1.52 m×2.13 m). All piglets were ear notched, teeth clipped, and injected with iron at 3 days of age. During this day, all males within a litter were also castrated by farm personnel. Prior to the study, piglets had no creep feeder. The preference test was performed in their home farrowing crate. Preference tests were conducted to determine piglet preference for skatole and myristic acid. First, nine litters (105 piglets) were used to evaluate piglet preference toward a solution containing both, skatole and myristic acid (N=9). Once piglet preference for a solution containing both molecules was determined, 8 litters (79 piglets) were used to evaluate piglet preference for skatole (N=8) and another 8 litters (80 piglets) to evaluate piglet preference for myristic acid (N=8) individually. Each litter was tested only once to ensure that piglets were tested at the same age and that they were not previously exposed to a feeder or a semiochemical.
At 7±2 days of age, two three-hole galvanized steel baby pig feeders were placed at each front corner of the farrowing crate for five hours for two consecutive days (FIG. 6). […] The sow was present during each five hours trial. Each feeder contained 100 g of pig pre-starter (MoorMan's ShowTec Prestarter, ADM, Quincy, IL) and was sprayed with either 5 mL of mineral oil (control) or 5 mL of the testing solution. The solution was sprayed on the feeder and not the feed. The 5 mL of the testing solution contained 4.5 mg of skatole and/or 9.0 mg of myristic acid. This concentration was selected based on the estimated concentration of each analyte in 150 g of lactating sow faeces based on GC/MS analysis. On the second testing day, feeder locations were switched to correct for side biases. A single observer following a 30 second scan sampling method, observed the behavior of each piglet in the litter at 30 second intervals to determine the percentage of time piglets spent interacting with each feeder during the five-hour period each testing day. A total of 600 observations were recorded per litter in each testing day. The percentage of time piglets within a litter spent interacting with each feeder was calculated by dividing the number of time piglets were observed interacting with a feeder over the total number of observations. Interacting with the feeder was defined as when piglets were sniffing, touching or licking the area of the feeder sprayed with the solution or eating or rooting the feed. A preference index was calculated for each feeder by dividing the amount of time piglets were observed interacting with a feeder by the sum of the number of times piglets were observed interacting with both feeders.
For each litter (experimental unit), an overall feed intake, preference index, and percentage of time interacted with each feeder was obtained from both testing days. Difference in overall feed intake, preference index, and percentage of time piglets spent interacting with the control and the feeder sprayed with the testing solutions were analyzed using the Wilcoxon-singed ranked test. […] All statistical analyses were performed using SAS 9.4. (SAS Inst., Inc., Cary, NC). A statistically significant difference was based on a P value≤0.05.

CCCCCCCCCCCCCC(=O)O [Myristic acid, Tetradecanoic acid]
overall preference index (PI): 0.47 | percentage of time piglets spent interacting with the feeder: 0.48% | piglet preference or aversion for sprayed feeder compared to control: No preference or aversion; also recorded: No preference

Cc1c[nH]c2ccccc12 [Skatole, 3-methylindole]
overall preference index (PI): 0.51 | percentage of time piglets spent interacting with the feeder: 0.54% | piglet preference or aversion for sprayed feeder compared to control: No preference or aversion; also recorded: No preference
